# Laboratory results: patent US10512654B2, “Pharmaceutical composition including dutasteride and capsule formulation comprising the same” (YUYU PHARMA, INC., priority 2015, dated 2019)
# Columns and labels:
# Format in all cases: physicochemical
# [1] = Solubility of dutasteride in oil (Test Example 1); conditions: for solubility at 24 h: oil or lipid, thermodynamic from solid
# Description: In order to measure the solubility of dutasteride in oil, the solubility of dutasteride in soybean oil, castor oil, propylene glycol dicaprylate, propylene glycol dicaprate and propylene glycol monolaurate was measured. In a 10 mL vial, a magnetic bar was placed. After 3 mL of the oil was added thereto, approximately 100 mg of dutasteride was added thereto while stirring under a room temperature (25° C.) condition, and the resultant mixture was stirred with 500 rpm or higher. After stirring for 24 hours, 1 mL of the resultant mixture was taken and separated using a centrifuge, and only the supernatant was taken to quantify the amount of dutasteride dissolved in the oil using liquid chromatography.
# [2] = Test I on stability of dutasteride depending on oil type (Test Example 2)
# Description: As samples used in the comparison test, a sample dissolving 1.0 mg of dutasteride in 10.0 mg of propylene glycol monolaurate and stored in a transparent vial, and a sample dissolving 1.0 mg of dutasteride in 10.0 mg of caprylic/capric acid mono-di-glyceride and stored in a transparent vial were used.
# [3] = Stability of dutasteride in mixture of oil and surfactant (Test Example 3); conditions: storage condition not given
# Description: A stability test on the pharmaceutical composition of the comparative example dissolving 0.5 mg of dutasteride in a mixture of 95 mg of propylene glycol monocaprylate and 5 mg of polyoxyl 35 castor oil and stored in a transparent vial, and the pharmaceutical composition of the example including dutasteride, propylene glycol monolaurate and polyoxyl 35 castor oil was carried out by identifying the generation of degradation products under an accelerated condition (40° C., 75% RH) and a stress condition (50° C. 95% RH). As shown in the following Table 5, it was seen that the mixture of propylene glycol monolaurate and a surfactant secured the stability of dutasteride unlike mixtures of surfactant with other oils such as propylene glycol monocaprylate.
# [4] = in Propylene Glycol Monocaprylate + Polyoxyl 35 Castor Oil
# [5] = in Propylene Glycol Monolaurate + Polyoxyl 35 Castor Oil
smiles,measurement,setting,value
"C[C@]12C=CC(=O)N[C@@H]1CC[C@@H]1[C@@H]2CC[C@]2(C)[C@@H](C(=O)Nc3cc(C(F)(F)F)ccc3C(F)(F)F)CC[C@@H]12 [Dutasteride, 17β-N-(2,5-bis(trifluoromethyl))phenylcarbamoyl-4-aza-5α-androst-1-en-3-one]",Solubility of Dutasteride,"[1]; in Propylene Glycol Dicaprylate, room temperature (25° C.), stirring for 24 hours",1130 µg/mL
same,solubility at 24 h,"[1]; in Propylene Glycol Dicaprate, room temperature (25° C.), stirring for 24 hours",770 µg/mL
same,solubility at 24 h,"[1]; in Propylene Glycol Monolaurate, room temperature (25° C.), stirring for 24 hours",10400 µg/mL
same,Solubility in propylene glycol monolaurate compared to other tested oils,[1]; propylene glycol monolaurate vs other tested (general) oils,≥ 10 times
same,Amount of Degradation Products (%) After 4 Weeks,"[2]; in Caprylic/Capric Acid Mono-Di-Glyceride, Accelerated Condition (40° C., 75% RH)",0.94%
same,Amount of Degradation Products (%) After 4 Weeks,"[2]; in Caprylic/Capric Acid Mono-Di-Glyceride, Stress Condition (50° C., 95% RH)",1.75%
same,Amount of Degradation Products (%) After 4 Weeks,"[2]; in Propylene Glycol Monolaurate, Accelerated Condition (40° C., 75% RH)",None
same,Amount of Degradation Products (%) After 4 Weeks,"[2]; in Propylene Glycol Monolaurate, Accelerated Condition (40° C., 75% RH), listed as dutasteride",not generated
same,Amount of Degradation Products (%) After 4 Weeks,"[2]; in Propylene Glycol Monolaurate, Stress Condition (50° C., 95% RH)",0.32%
same,Stability of dutasteride in propylene glycol monolaurate compared to caprylic/capric acid mono-di-glyceride,"[2]; week 4, accelerated (40° C., 75% RH) and stress condition (50° C., 95% RH), in words",more superior
same,Amount of Degradation Products (%) After 3 Weeks,[3]; [4],6.2%
same,Amount of Degradation Products (%) After 4 Weeks,[3]; [4],12.1%
same,Amount of Degradation Products (%) After 3 Weeks,[3]; [5],None
same,Amount of Degradation Products (%) After 4 Weeks,[3]; [5],None
